According to patent US20060258671A1, “Phenylpyridylpiperazine compounds” (priority 2005, published 2006):

Target: T1, type H3 central histamine receptors (Mus musculus, UniProt P58406)
T1 construct: from tissue; host or cells: brain of living NMRI mice, treated in vivo; brains removed afterwards for the metabolite RIA
Assay: Cerebral levels of Nτ-methylhistamine in the NMRI mouse (ex vivo, RIA)
Settings: one hour after treatment
Description: The purpose of this study, which was carried out in accordance with the method of Taylor et al. (Biochem. Pharm., 1992, 44, 1261-1267), is to evaluate the ex vivo activity of the compounds of the present invention as antagonists of type H3 central histamine receptors. […] An increase in the cerebral concentrations of N^τ-methylhistamine indicates an increase in the turn-over of histamine by blockage of the type H3 central histamine receptors.
NMRI mice (18-20 g) are treated intraperitoneally or orally with compounds of the present invention or with their carrier (20 ml/kg). One hour after the pharmacological treatment, the animals are sacrificed, and their brains are removed, frozen in liquid nitrogen, weighed and homogenised in 0.1N HClO4 at 4° C. The homogenised products are centrifuged (15 000 g, 17 min, 4° C.). The supernatants are recovered and divided into aliquots. The aliquots are frozen in liquid nitrogen and stored at −80° C. until analysis.
Determination of the cerebral levels of N′-methylhistamine is carried out by radio-immunological assay (RIA) using an assay kit. The tissue levels of N^τ-methylhistamine are expressed in μg/g of fresh brain. […]

T1 sequence (P58406 whole entry): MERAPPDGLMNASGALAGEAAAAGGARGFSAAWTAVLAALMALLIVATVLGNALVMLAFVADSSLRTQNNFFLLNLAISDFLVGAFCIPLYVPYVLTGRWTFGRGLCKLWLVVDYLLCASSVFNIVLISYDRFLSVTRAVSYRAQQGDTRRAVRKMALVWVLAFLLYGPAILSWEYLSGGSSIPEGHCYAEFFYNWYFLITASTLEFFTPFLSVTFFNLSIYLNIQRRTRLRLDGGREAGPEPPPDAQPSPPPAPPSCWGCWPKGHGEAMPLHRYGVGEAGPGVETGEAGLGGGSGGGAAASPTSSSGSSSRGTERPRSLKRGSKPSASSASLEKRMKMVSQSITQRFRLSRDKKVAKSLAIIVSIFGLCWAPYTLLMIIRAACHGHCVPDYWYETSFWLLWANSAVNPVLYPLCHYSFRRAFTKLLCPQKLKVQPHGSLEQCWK

| Structure (SMILES) | increase in the endogenous cerebral concentrations of Nτ-methylhistamine (10 mg/kg PO) [%] | increase in the endogenous cerebral concentrations of Nτ-methylhistamine (3 mg/kg PO) [%] |
| --- | --- | --- |
| CS(=O)(=O)Nc1ccc(-c2ccc(N3CCN(C4CC4)CC3)nc2)cc1.Cl.Cl [Example 4, N-{4-[6-(4-Cyclopropylpiperazin-1-yl)pyridin-3-yl]phenyl}methane-sulphonamide dihydrochloride] | 162 | – |
| CC(C)N1CCN(c2ccc(-c3ccc(NS(=O)(=O)C(C)C)cc3)cn2)CC1.Cl.Cl [Example 7, N-{4-[6(4-Isopropylpiperazin-1-yl)pyridin-3-yl]phenyl}propane-2-sulphonamide dihydrochloride] | – | 138 |
